In PubChem BioAssay AID1963828 (Molecular Pharmacology Branch, DTP, NCI, 2024):
pIC50: −log10 of the molar value.

System: 991263-137-R1-J2-PDC complex spheroid viability
Assay: Anticancer human tumor 991263-137-R1-J2-PDC patient-derived colon adenocarcinoma cell line growth inhibition [POLQ]
Conditions: for pIC50: curve of first compound; for viability, T/C: stronger effect = lower value
Protocol: Multicellular complex tumor spheroid response to Polymerase (POL) inhibitors (novobiocin, ART-558, RP6685) in combination with a variety of drugs and investigational agents in selected tumor cell lines
The POL inhibitors (novobiocin, ART-558, and RP6685) were evaluated both individually and in combination with standard of care and investigational anticancer small molecules within a complex spheroid model of solid tumors. . Complex spheroids include a stromal component modeled by human endothelial cells (HUVEC) and fibroblasts modeled by human mesenchymal stem cells (MSCs). The concentration ranges selected for each drug and investigational agent were based upon clinically achievable concentrations if the clinical Cmax of the agent was known.
Compounds. The drugs and investigational agents: novobiocin (NSC847541), ART-558 (NSC835418), RP-6685 (NSC848927), peposertib (NSC802822), ceralasertib (NSC780249), elimusertib (NSC800525), camonsertib (NSC841442), AZD-1390 (NSC803789), olaparib (NSC753686), talazoparib (NSC767125), rucaparib (NSC756644), sotorasib (NSC818433), MRTX-1133 (NSC836407), SN-38 (NSC673596), topotecan (NSC609699), epotoside (NSC141540), doxorubicin (NSC123127), gemcitabine (NSC613327), 5-fluorouracil (NSC19893), paclitaxel (NSC125973), vemurafenib (NSC761431), MSA-2 (NSC828583), SN-011 (NSC837082), adavosertib (NSC754352), prexasertib (NSC758257), carboplatin (NSC241240) and oxaliplatin (NSC266046), were obtained from the National Cancer Institute (NCI) Developmental Therapeutics Program Chemical Repository (21). The FDA-approved anticancer drug set is available from the Developmental Therapeutics Program at https://dtp.cancer.gov/organization/dscb/obtaining/. […] The stock solutions were prepared in dimethyl sulfoxide (DMSO, Sigma-Aldrich, St. Louis, MO, cat. D2650), except for the platinum compounds which were prepared in saline (Quality Biological, Gaithersburg, MD, cat. 114-055-101), at 800-fold the tested concentration and stored at -70 degrees C prior to their use. All drugs and investigational agents were tested over a range starting from a high concentration at or near the clinical Cmax and decreasing in half-log increments. If the clinical Cmax for an agent had not been determined, the highest concentration tested was 10 microM, except for SN-38, which was tested at a high concentration of 1 microM.
Cell Culture. All cells were maintained in an incubator at 37 degrees C and 5% CO2 with 95% humidity. The PDC lines were cultured according to standard operating procedures established by the NCI PDMR (https://pdmr.cancer.gov). Table 3 of the manuscript, lists the cell lines along with the number of the three cell types plated to form the mct-spheroids and media for tumor cell growth. After thawing, all PDC lines, except 997537-175-T-J1-PDC and 415267-285-R-J2-PDC, were cultured in Matrigel-coated flasks prepared with a working solution of 1X Ham's F-12 nutrient mix, without supplementation (Thermo Fisher Scientific, cat. 11765054), 100 U/mL penicillin-streptomycin (Thermo Fisher Scientific, cat. 15140122), and 2.5% Matrigel (Corning Inc., Corning, NY, cat. 354248) for the first three passages. The two PDC lines 997537-175-T-J1-PDC and 415267-285-R-J2-PDC were cultured on uncoated flasks. The 857933-349-R-J2-PDC line was cultured in 6C/Colon 1B media containing advanced DMEM/F-12 (Thermo Fisher Scientific, cat. 12634028), 10 mM HEPES (Thermo Fisher Scientific, cat. 15630080), 1X GlutaMAX supplement (Thermo Fisher Scientific, cat. 35050061), 0.1 mg/mL primocin (InvivoGen, San Diego, CA, cat. ant-pm-2), 10% defined fetal bovine serum, heat inactivated (HyClone Laboratories Inc., Logan, UT, cat. SH30070.03HI), 50% L-WRN conditioned media (ATCC, cat. CRL-3276), 1.25 mM N-Acetyl-L-cysteine (Sigma-Aldrich, cat. A9165), 10 mM nicotinamide (Sigma-Aldrich, cat. N0636), 1X B-27 supplement (Thermo Fisher Scientific, cat. 17504044), 1X N-2 supplement (Thermo Fisher Scientific, cat. […]

[1] = second compound 0.0316 µM, first compound 0.0316 µM
[2] = second compound 0.0316 µM, first compound 0.1 µM
[3] = second compound 0.0316 µM, first compound 0.316 µM
[4] = second compound 0.0316 µM, first compound 1 µM
[5] = second compound 0.1 µM, first compound 0.0316 µM
[6] = second compound 0.1 µM, first compound 0.1 µM
[7] = second compound 0.1 µM, first compound 0.316 µM
[8] = second compound 0.1 µM, first compound 1 µM
[9] = second compound 0.316 µM, first compound 0.0316 µM
[10] = second compound 0.316 µM, first compound 0.1 µM
[11] = second compound 0.316 µM, first compound 0.316 µM
[12] = second compound 0.316 µM, first compound 1 µM
[13] = second compound 1 µM, first compound 0.0316 µM
[14] = second compound 1 µM, first compound 0.1 µM
[15] = second compound 1 µM, first compound 0.316 µM
[16] = second compound 1 µM, first compound 1 µM
[17] = second compound 3.16 µM, first compound 0.0316 µM
[18] = second compound 3.16 µM, first compound 0.1 µM
[19] = second compound 3.16 µM, first compound 0.316 µM
[20] = second compound 3.16 µM, first compound 1 µM
[21] = second compound 10 µM, first compound 0.0316 µM
[22] = second compound 10 µM, first compound 0.1 µM
[23] = second compound 10 µM, first compound 0.316 µM
[24] = second compound 10 µM, first compound 1 µM
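Also: spheroids exposed to compounds for 7 days before readout.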
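For viability, T/C in this document: 100% = DMSO vehicle control viability.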

Q: Which results are given for COc1cccc(OCCCN)c1-c1cc(Nc2cnc(C#N)cn2)n[nH]1 + Cc1cccc(N(C)C(=O)C2C(O)CCN2c2nc(C)cc(C(F)(F)F)c2C#N)c1?
A: pIC50 (second compound 0.0316 µM): 6.17; pIC50 (second compound 0.1 µM): 6.14; pIC50 (second compound 0.316 µM): 6.06; pIC50 (second compound 1 µM): 6.00; pIC50 (second compound 3.16 µM): 6.08; pIC50 (second compound 10 µM): 6.20; viability, T/C (second compound 0.0316 µM, first compound 0.00316 µM): 113%; viability, T/C (second compound 0.0316 µM, first compound 0.01 µM): 104%; viability, T/C [1]: 90.1%; viability, T/C [2]: 85.2%; viability, T/C [3]: 61.2%; viability, T/C [4]: 42.8%; viability, T/C (second compound 0.1 µM, first compound 0.00316 µM): 111%; viability, T/C (second compound 0.1 µM, first compound 0.01 µM): 95.8%; viability, T/C [5]: 104%; viability, T/C [6]: 88.2%; viability, T/C [7]: 62.2%; viability, T/C [8]: 45.4%; viability, T/C (second compound 0.316 µM, first compound 0.00316 µM): 105%; viability, T/C (second compound 0.316 µM, first compound 0.01 µM): 99.6%; viability, T/C [9]: 91.5%; viability, T/C [10]: 94%; viability, T/C [11]: 71.4%; viability, T/C [12]: 47%; viability, T/C (second compound 1 µM, first compound 0.00316 µM): 96.2%; viability, T/C (second compound 1 µM, first compound 0.01 µM): 101%; viability, T/C [13]: 96.7%; viability, T/C [14]: 83%; viability, T/C [15]: 76.7%; viability, T/C [16]: 49.1%; viability, T/C (second compound 3.16 µM, first compound 0.00316 µM): 110%; viability, T/C (second compound 3.16 µM, first compound 0.01 µM): 108%; viability, T/C [17]: 89.3%; viability, T/C [18]: 94.8%; viability, T/C [19]: 79.9%; viability, T/C [20]: 43.4%; viability, T/C (second compound 10 µM, first compound 0.00316 µM): 93.7%; viability, T/C (second compound 10 µM, first compound 0.01 µM): 96.4%; viability, T/C [21]: 91.6%; viability, T/C [22]: 76.1%; viability, T/C [23]: 55%; viability, T/C [24]: 46.5%

Q: With O=C(c1cc(Cc2n[nH]c(=O)c3ccccc23)ccc1F)N1CCN(C(=O)C2CC2)CC1 + Cc1cccc(N(C)C(=O)C2C(O)CCN2c2nc(C)cc(C(F)(F)F)c2C#N)c1 as the compound, how does the pIC50 (second compound 0.0316 µM) read?
A: < 5.00

Q: And the pIC50 (second compound 0.1 µM)?
A: < 5.00

Q: And the pIC50 (second compound 0.316 µM)?
A: < 5.00

Q: And the pIC50 (second compound 1 µM)?
A: < 5.00

Q: And the pIC50 (second compound 3.16 µM)?
A: < 5.00

Q: And the pIC50 (second compound 10 µM)?
A: < 5.00

Q: And the viability, T/C [1]?
A: 105%

Q: What about the viability, T/C [2] of the same compound?
A: 99.1%

Q: What about the viability, T/C [3] of the same compound?
A: 92.4%

Q: What about the viability, T/C [4] of the same compound?
A: 105%

Q: What about the viability, T/C (second compound 0.0316 µM, first compound 3.16 µM) of the same compound?
A: 79.5%

Q: And the viability, T/C (second compound 0.0316 µM, first compound 10 µM)?
A: 79.3%

Q: And the viability, T/C [5]?
A: 101%

Q: What about the viability, T/C [6] of the same compound?
A: 104%

Q: And the viability, T/C [7]?
A: 93.2%

Q: What about the viability, T/C [8] of the same compound?
A: 84.4%

Q: And the viability, T/C (second compound 0.1 µM, first compound 3.16 µM)?
A: 87.1%

Q: And the viability, T/C (second compound 0.1 µM, first compound 10 µM)?
A: 99%

Q: And the viability, T/C [9]?
A: 92.5%

Q: And the viability, T/C [10]?
A: 118%

Q: What about the viability, T/C [11] of the same compound?
A: 96%

Q: And the viability, T/C [12]?
A: 99.3%

Q: What about the viability, T/C (second compound 0.316 µM, first compound 3.16 µM) of the same compound?
A: 90%

Q: And the viability, T/C (second compound 0.316 µM, first compound 10 µM)?
A: 72%

Q: What about the viability, T/C [13] of the same compound?
A: 90.2%

Q: And the viability, T/C [14]?
A: 91.3%

Q: And the viability, T/C [15]?
A: 91.5%

Q: And the viability, T/C [16]?
A: 111%

Q: And the viability, T/C (second compound 1 µM, first compound 3.16 µM)?
A: 107%

Q: And the viability, T/C (second compound 1 µM, first compound 10 µM)?
A: 91.4%

Q: What about the viability, T/C [17] of the same compound?
A: 80.8%

Q: And the viability, T/C [18]?
A: 95.3%

Q: And the viability, T/C [19]?
A: 92.8%

Q: What about the viability, T/C [20] of the same compound?
A: 80.4%

Q: And the viability, T/C (second compound 3.16 µM, first compound 3.16 µM)?
A: 108%

Q: And the viability, T/C (second compound 3.16 µM, first compound 10 µM)?
A: 95.8%

Q: What about the viability, T/C [21] of the same compound?
A: 96.5%

Q: What about the viability, T/C [22] of the same compound?
A: 101%

Q: What about the viability, T/C [23] of the same compound?
A: 86.1%

Q: What about the viability, T/C [24] of the same compound?
A: 100%

Q: What about the viability, T/C (second compound 10 µM, first compound 3.16 µM) of the same compound?
A: 106%

Q: What about the viability, T/C (second compound 10 µM, first compound 10 µM) of the same compound?
A: 90.4%
